Source: patent publication US20260263624A1, “COMBINATION OF ANTIBODY-DRUG CONJUGATE AND CANCER THERAPY, AND USE THEREOF” (GENEQUANTUM HEALTHCARE (SUZHOU) CO., LTD., priority 2023, published 2026)

How the values were obtained:
[1] = test system: gastric cancer HER2 IHC 3+ PDX model; assay: In vivo efficacy of GQ01 with TKIs in human gastric cancer PDX model (Example 4); design: species or system Nu/Nu mice; settings: for TGI (%): day 35; for TGI (%) / Tumor volume (mm^3), Mean ± SEM: GQ01 10 mg/kg single dose; for Tumor volume (mm^3), Mean ± SEM: end day (day 35); for PD (response status, share of animals): 6 mice per group, GQ01 10 mg/kg
Description: I. The tumor tissues of PDX model were extracted from the tumor-bearing mice and were transferred to RPMI-1640 culture medium, cut into small fragments, and then inoculated subcutaneously in the right flank of SPF female Nu/Nu mice aged 6~8 weeks.
(§1) II. 14 days after inoculation, the tumor diameter was measured with a caliper and the tumor volume was calculated according to the formula V=0.5 a×b2 (wherein a is the long diameter of the tumor and b is the short diameter of the tumor). […] Each group included 6 mice. The day of first administration was defined as day 0. […] The tumor volume of mice in each group was measured twice a week.
The response status were calculated based on the diameters or disappearance of target lesions.

[2] = test system: human breast cancer HER2 IHC 3+ PDX model (acquired resistance to trastuzumab and pertuzumab, primary resistance to pyrotinib); assay: In vivo efficacy of GQ01 with TKIs in human breast cancer PDX model resistant to trastuzumab, pertuzumab and pyrotinib (Example 3); design: species or system NCG mice; settings: for TGI (%): day 42; for TGI (%) / Tumor volume (mm^3), Mean ± SEM: GQ01 3 mg/kg on day 0 and 5 mg/kg on day 21; for Tumor volume (mm^3), Mean ± SEM: end day (day 42)
Description: This model was derived from a patient with Stage III invasive breast cancer, who was assessed as acquired drug resistance to trastuzumab and pertuzumab and primary resistance to pyrotinib based on the history of treatments.
I. The tumor tissues of PDX model were extracted from the tumor-bearing mice and were transferred to culture medium, cut into small fragments, and then inoculated subcutaneously in the right flank of SPF female NCG mice aged 6~8 weeks.
as §1, with “29” for “14”

[3] = test system: human breast cancer HER2 IHC 3+ PDX model; assay: In vivo efficacy of GQ01 with TKIs in human breast cancer PDX model (Example 1); design: species or system NOD SCID mice; settings: GQ01 5 mg/kg Q3W×2, combination 5 + 20 mg/kg; for TGI (%): day 77; for Tumor volume (mm^3), Mean ± SEM: end day (day 77)
Description: I. The tumor tissues of PDX model were extracted from the tumor-bearing mice and then transferred to culture medium, cut into small fragments, and inoculated subcutaneously at the right flank of SPF female NOD SCID mice aged 6~8 weeks.
II. The tumor diameter was measured with a caliper and the tumor volume was calculated according to the formula V=0.5 a×b^2 (wherein a is the long diameter of the tumor and b is the short diameter of the tumor). […] The tumor volume of mice in each group was measured twice a week.

[4] = test system: breast cancer HER2 IHC 3+ PDX model (primary resistance to palbociclib); assay: In vivo efficacy of GQ01 with TKIs in human breast cancer PDX model, primary resistance to palbociclib (Example 2); design: species or system NCG mice; settings: GQ01 5 mg/kg on day 0 and day 28; for TGI (%): day 49; for Tumor volume (mm^3), Mean ± SEM: end day (day 49)
Description: The model was derived from a patient with Stage III invasive breast cancer who developed metastases to lung and bone after surgery.
I. The tumor tissues of PDX model were extracted from the tumor-bearing mice and were transferred to culture medium, cut into small fragments, and inoculated subcutaneously in the right flank of SPF female NCG mice aged 6~8 weeks.
as §1, with “30” for “14”, “a×b^2” for “a×b2”, “mice” for “mice in each group”

[5] = pyrotinib 20 mg/kg QD 2 weeks, combination 10 + 20 mg/kg
[6] = pyrotinib 20 mg/kg QD 2 weeks, combination 10 + 20 mg/kg, listed as pyrotinib
[7] = pyrotinib 20 mg/kg QD day 0-13, 21-34, combination 3/5 + 20 mg/kg
[8] = pyrotinib 20 mg/kg QD day 0-13, 21-34, combination 3/5 + 20 mg/kg, listed as pyrotinib
[9] = pyrotinib 20 mg/kg QD×2W+QD×2W, listed as pyrotinib
[10] = pyrotinib 20 mg/kg QD day 0-13, 28-41, combination 5 + 20 mg/kg
[11] = pyrotinib 20 mg/kg QD day 0-13, 28-41, combination 5 + 20 mg/kg, listed as pyrotinib
[12] = neratinib 20 mg/kg QD×2W+QD×2W, listed as neratinib
[13] = tucatinib 50 mg/kg QD 2 weeks, combination 10 + 50 mg/kg
[14] = tucatinib 50 mg/kg QD 2 weeks, combination 10 + 50 mg/kg, listed as tucatinib
[15] = tucatinib 50 mg/kg QD day 0-13, 21-34, combination 3/5 + 50 mg/kg
[16] = tucatinib 50 mg/kg QD day 0-13, 21-34, combination 3/5 + 50 mg/kg, listed as tucatinib
[17] = tucatinib 20 mg/kg BID×2W+BID×2W
[18] = tucatinib 20 mg/kg BID×2W+BID×2W, listed as tucatinib
[19] = tucatinib 50 mg/kg QD day 0-13, 28-41, combination 5 + 50 mg/kg
[20] = tucatinib 50 mg/kg QD day 0-13, 28-41, combination 5 + 50 mg/kg, listed as tucatinib

Compound: CCOc1cc2ncc(C#N)c(Nc3ccc(OCc4ccccn4)c(Cl)c3)c2cc1NC(=O)/C=C/[C@H]1CCCN1C [Pyrotinib, pyrotinib]
- TGI (%) [1, 5]: 83.09%
- TGI (%) [1, 6]: 83.09%
- Tumor volume (mm^3), Mean ± SEM [1, 5]: 233.72 ± 39.7 mm^3
- Tumor volume (mm^3), Mean ± SEM [1, 6]: 234 mm^3
- PD (response status, share of animals) ([1]; pyrotinib arm table, pyrotinib 20 mg/kg, dash = no animal in this class): 83.33%
- TGI (%) [2, 7]: 10.08%
- TGI (%) [2, 8]: 10.08%
- Tumor volume (mm^3), Mean ± SEM [2, 7]: 1333.21 ± 217.85 mm^3
- Tumor volume (mm^3), Mean ± SEM [2, 8]: 1333 mm^3
- TGI (%) ([3]; pyrotinib 20 mg/kg QD×2W+QD×2W): 34.93%
- TGI (%) [3, 9]: 34.93%
- Tumor volume (mm^3), Mean ± SEM ([3]; pyrotinib 20 mg/kg QD×2W+QD×2W): 1108 ± 202 mm^3
- Tumor volume (mm^3), Mean ± SEM [3, 9]: 1108 mm^3
- TGI (%) [4, 10]: −2.65%
- TGI (%) [4, 11]: −2.65%
- Tumor volume (mm^3), Mean ± SEM [4, 10]: 740.71 ± 146.76 mm^3
- Tumor volume (mm^3), Mean ± SEM [4, 11]: 741 mm^3

Compound: CCOc1cc2ncc(C#N)c(Nc3ccc(OCc4ccccn4)c(Cl)c3)c2cc1NC(=O)/C=C/CN(C)C [Neratinib, neratinib]
- TGI (%) ([3]; neratinib 20 mg/kg QD×2W+QD×2W): 61.80%
- TGI (%) [3, 12]: 61.80%
- Tumor volume (mm^3), Mean ± SEM ([3]; neratinib 20 mg/kg QD×2W+QD×2W): 724 ± 114 mm^3
- Tumor volume (mm^3), Mean ± SEM [3, 12]: 724 mm^3

Compound: Cc1cc(Nc2ncnc3ccc(NC4=NC(C)(C)CO4)cc23)ccc1Oc1ccn2ncnc2c1 [Tucatinib, tucatinib]
- TGI (%) [1, 13]: 48.94%
- TGI (%) [1, 14]: 48.94%
- Tumor volume (mm^3), Mean ± SEM [1, 13]: 399.97 ± 43.87 mm^3
- Tumor volume (mm^3), Mean ± SEM [1, 14]: 400 mm^3
- PD (response status, share of animals) ([1]; tucatinib arm table, tucatinib 50 mg/kg): 100%
- TGI (%) [2, 15]: −6.46%
- TGI (%) [2, 16]: −6.46%
- Tumor volume (mm^3), Mean ± SEM [2, 15]: 1557.77 ± 178.71 mm^3
- Tumor volume (mm^3), Mean ± SEM [2, 16]: 1558 mm^3
- response of the model to treatment, in words ([2]; tucatinib 50 mg/kg QD day 0-13, 21-34): doesn't respond
- TGI (%) [3, 17]: 51.08%
- TGI (%) [3, 18]: 51.08%
- Tumor volume (mm^3), Mean ± SEM [3, 17]: 879 ± 216 mm^3
- Tumor volume (mm^3), Mean ± SEM [3, 18]: 879 mm^3
- TGI (%) [4, 19]: −1.09%
- TGI (%) [4, 20]: −1.09%
- Tumor volume (mm^3), Mean ± SEM [4, 19]: 732.33 ± 137.71 mm^3
- Tumor volume (mm^3), Mean ± SEM [4, 20]: 732 mm^3
